For the experiment, the system named is kdp c-di-AMP riboswitch transcript (5'-UTR of kdpFABC, run-off from -88 to +363 template) (RNA, riboswitch) AUAAAUCAUUCAUAAAAUUUCCAAAAAAACCUAAAAUCGCUGAGUUCCAGAAAUGGAGCGGGGGAACCAAUUUUGUGCAUCGUCACUUGGGGUGAAUCUUUCAGUUUUGAAAGUAGGGCUACUCUUUAGGCCCGAAUCCGACAGCUAACCUCGUAAGCGUUUAGAGAGGAGGUUUACUUUUUGUUGUUCAUUUUUUGAACACUGAGUAGAGCUCAGUGUUCUUUUUUAAUAUUUAAAUGGUAAAUUUUAACAAAAAAGAGGGGAUAGUUAUGUUAGAUGUUGUAAUGGUCGGGAUUUUUAUUUUAUUAGUUGCAUCGAUGGCAAGUCUUGCAAGUUGGUCAGAUAAAGUUGUGAAAGAAGGA
The experiment in a line: in vitro transcription termination (E. coli RNA polymerase), gel. To be noted: 150 mM KCl, 10 mM MgCl2; 40 mM Tris-HCl pH 7.5, 37 °C; c-di-AMP 0-5 µM; termination rises 27% to 63%; functional, no constant.

On to `Nc1ncnc2c1ncn2[C@@H]1O[C@@H]2COP(=O)(O)O[C@H]3[C@@H](O)[C@H](n4cnc5c(N)ncnc54)O[C@@H]3COP(=O)(O)O[C@H]2[C@H]1O`, for which the binding result is given as “yes”.

Source of the values: paper PMC6488665 (2019).
